Tests used:
[1] = U.S. Pat. No. 5,731,347; Phase 2 clinical study; cited from earlier work
[2] = test system: most microorganisms, including gram negative bacteria, fungal spores, and viruses; type: cell-based
viruses [3] = type: cell-based
viruses [4] = conditions: cited from earlier work
flu viruses = conditions: cited from earlier work
[5] = Gargle and nasal spray with ClO2 solution in people with sore throat, cold or sinusitis; conditions: in vivo

| Molecule | therapy for canker sores in the mouth [1] | time to kill most microorganisms [2] | deactivation of all viruses (viruses [3]) | inactivation of all viruses tested (viruses [4]) | kill of all flu viruses (flu viruses) | inflammation and discomfort noted by users [5] | toxicity or irritation to the mucus membranes [5] |
| --- | --- | --- | --- | --- | --- | --- | --- |
| CC(O)C(=O)O (stereo not shown) [lactic acid] | excellent therapy |  |  |  |  |  |  |
| chlorine dioxide |  | about one | deactivated in seconds | inactivated within a minute | in a few seconds | near-immediate reductions | non toxic or non-irritating |
